Values quoted from earlier work in patent EP2497775A1, “Ferrocene-based compounds and their use as ROS regulating prodrugs” (Ruprecht-Karls-Universität Heidelberg, priority 2011, dated 2012).

What was measured:
[1] = system: 8226 (Human myeloma); conditions: ref. [1]; cited from earlier work
[2] = system: WiDr (Human, colon); conditions: ref. [1]; cited from earlier work
[3] = system: (Human, breast); conditions: ref. [1]; cited from earlier work
[4] = system: different neuroblastoma cell lines; conditions: ref. [2]; cited from earlier work
[5] = system: SW480 (Human, colon); conditions: ref. [3]; cited from earlier work
[6] = system: HT29 (Human, colon); conditions: ref. [4]; cited from earlier work
[7] = system: Human multiple myeloma; conditions: ref. [7]; cited from earlier work
[8] = system: HL-60 (leukemia); conditions: ref. [8]; cited from earlier work
[9] = system: HCT8 (colon); conditions: ref. [8]; cited from earlier work

For CCCCS(=N)(=O)CCC(N)C(=O)O (stereo not drawn) [Buthionine sulfoximine (BSO), Buthionine sulfoximine], the IC50 [1] is given as 2000 nM, the IC50 [2] is given as 450000 nM and the IC50 [3] is given as 850000 nM. For the same compound, the IC50 [4] was 300 to 311000 nM.
For CC(=O)Oc1ccccc1C(=O)Oc1cccc(CO[N+](=O)[O-])c1 [NO-ASA], the IC50 [5] is listed as 85000 nM and the IC50 [6] is listed as 3000 to 7000 nM.
In the case of CC1(C)CCC2=C(O1)c1ccccc1C(=O)C2=O [β-Lapachone], the IC50 [7] is listed as 1000 nM, the IC50 [8] is listed as 1650 nM and the IC50 [9] is listed as 830 nM.
